The numbers were not newly measured in patent US20260315605A1, “PROTACS FOR ASK1 PROTEIN DEGRADATION: PREPARATION AND USE THEREOF” (COUNCIL OF SCIENTIFIC AND INDUSTRIAL RESEARCH, priority 2023, published 2026), which cites them from elsewhere.

Data set [1] has as its system NASH patients. The note with it: Phase III, Harrison et al. 2020.
The subject of data set [2] is ASK1/MAPK pathway. Particulars: Harrison et al. 2020.

Structures are written as SMILES.

Take `Cc1cc(F)c(C(=O)Nc2cccc(-c3nncn3C(C)C)n2)cc1-n1cnc(C2CC2)c1` [selonsertib]: the “clinical outcome, fibrosis improvement” value in data set [1] is reported as “failed in Phase III clinical trial of fibrosis improvement in NASH patients”. Moreover, the anti-fibrotic activity entry in data set [2] was “promising anti-fibrotic activity”.
